One data set has as its system Y. pseudotuberculosis. As to the kind of experiment: microbe, parasite or virus in culture. The settings on record: Yersinia pseudotuberculosis, J774, read-out: % Cytotoxicity.
A further data set relates to P. aeruginosa. Kind of data set: P. aeruginosa cytotoxicity whole cell assay (J774 cells, LDH release). The settings on record: relative to vehicle treated cells infected with wild type P. aeruginosa.
Another data set concerns the target LcrF (VirF) (Yersinia pestis, UniProt P28808). Kind of data set: biochemical. It is filed as binding, Y. pseudotuberculosis.
The target of the next data set is T1, ExsA (Pseudomonas aeruginosa, UniProt P26993).
T1 construct: made in house
T1 sequence (P26993 1-278): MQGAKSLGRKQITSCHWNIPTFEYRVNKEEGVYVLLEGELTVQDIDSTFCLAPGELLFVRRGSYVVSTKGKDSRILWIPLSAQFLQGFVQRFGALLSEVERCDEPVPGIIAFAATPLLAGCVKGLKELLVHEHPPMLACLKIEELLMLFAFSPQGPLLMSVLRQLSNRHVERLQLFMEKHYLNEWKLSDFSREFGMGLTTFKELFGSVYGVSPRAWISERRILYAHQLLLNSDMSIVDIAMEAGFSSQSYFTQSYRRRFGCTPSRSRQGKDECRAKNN
Kind of data set: Chemiluminescence-based ExsA-DNA binding assay. Set-up: species or system P. aeruginosa. To be noted: Table 7, cell-free system; read-out: ExsA EC50.

The mark [1] stands for this setting: EC50 for inhibition of LcrF(VirF)-DNA binding.
The mark [2] stands for this setting: read-out: EC50 for inhibition of LcrF(VirF)-DNA binding.

These results are taken from US20090131481A1, “Transcription Factor Modulating Compounds and Methods of Use Thereof” (Paratek Pharmaceuticals, Inc., published 2009).

The structures appear in SMILES notation. Where two headings read alike, the source gives them in different places.

LcrF (VirF), sequence (P28808 whole entry, looked up): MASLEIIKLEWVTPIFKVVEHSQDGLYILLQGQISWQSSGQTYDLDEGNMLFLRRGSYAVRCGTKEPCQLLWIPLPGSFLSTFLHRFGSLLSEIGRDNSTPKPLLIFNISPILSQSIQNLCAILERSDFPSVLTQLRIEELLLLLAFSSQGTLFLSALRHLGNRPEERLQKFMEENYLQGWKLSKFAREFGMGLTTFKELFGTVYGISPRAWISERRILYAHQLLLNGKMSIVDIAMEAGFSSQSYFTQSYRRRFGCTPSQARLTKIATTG

As to `N#Cc1ccc(C(=O)Nc2ccc(-c3nc4ccc(C#N)cc4n3O)cc2)cc1` [CO], the activity at 50 µg/mL in the data set on Y. pseudotuberculosis was in the range of 75 to 99%. Besides, the “Cytotoxicity at 50 μg/mL Pseudomonas” value with P. aeruginosa is “* (reduced P. aeruginosa cytotoxicity to 99-75% of untreated, wild type levels at 50 mg/mL)”.
On to `O=C(/C=C/c1ccc(F)cc1)Nc1ccc(-c2nc3ccc([N+](=O)[O-])cc3n2OCP(=O)(O)O)cc1` [DW, (2-{4-[(E)-3-(4-Fluoro-phenyl)-acrloylamino]-phenyl}-6-nitro-benzoimidazol-1-yloxymethyl)-phosphonic acid], for which, in the data set with Y. pseudotuberculosis, the activity at 50 µg/mL fell in the range of 75 to 99%. For the same molecule, the “Cytotoxicity at 50 μg/mL Pseudomonas” value in the data set with P. aeruginosa is listed as “* (reduced P. aeruginosa cytotoxicity to 99-75% of untreated, wild type levels at 50 mg/mL)”.
Turning to `O=C(/C=C/c1ccc(F)cc1)Nc1ccc(-c2nc3ccc([N+](=O)[O-])cc3n2O)cn1` [DY], the activity at 50 µg/mL with Y. pseudotuberculosis is under 75%. In addition, the “Cytotoxicity at 50 μg/mL Pseudomonas” value with P. aeruginosa is recorded as “* (reduced P. aeruginosa cytotoxicity to 99-75% of untreated, wild type levels at 50 mg/mL)”.
On to `O=C(/C=C/c1ccc(F)cc1F)Nc1ccc(-c2nc3ccc([N+](=O)[O-])cc3n2O)nc1` [EA], for which, in the data set with Y. pseudotuberculosis, the activity at 50 µg/mL was under 75%. In addition, the “Cytotoxicity at 50 μg/mL Pseudomonas” value with P. aeruginosa was “* (reduced P. aeruginosa cytotoxicity to 99-75% of untreated, wild type levels at 50 mg/mL)”.
`O=C(/C=C/c1ccc(F)cc1F)Nc1ccc(-c2nc3ccc([N+](=O)[O-])cc3n2O)cn1` [EB]: the activity at 50 µg/mL in the data set on Y. pseudotuberculosis is under 75%. Also, in the data set with P. aeruginosa, the “Cytotoxicity at 50 μg/mL Pseudomonas” value is reported as “* (reduced P. aeruginosa cytotoxicity to 99-75% of untreated, wild type levels at 50 mg/mL)”.
For `CCOP(=O)(Cc1cc(/C=C/C(=O)Nc2ccc(-c3nc4ccc([N+](=O)[O-])cc4n3O)cc2)ccc1F)OCC` [EF], the activity at 50 µg/mL in the data set with Y. pseudotuberculosis is under 75%. Also, the “Cytotoxicity at 50 μg/mL Pseudomonas” value with P. aeruginosa is “* (reduced P. aeruginosa cytotoxicity to 99-75% of untreated, wild type levels at 50 mg/mL)”.
On to `Cc1cc2nc(-c3ccc(NC(=O)/C=C/c4ccc(F)cc4)cc3)n(O)c2cc1[N+](=O)[O-]` [EO, (E)-3-(4-Fluoro-phenyl)-N-[4-(1-hydroxy-5-methyl-6-nitro-1H-benzoimidazol-2-yl)-phenyl]-acrylamide], for which the activity at 50 µg/mL in the data set on Y. pseudotuberculosis lay in the range of 75 to 99%. Further, the “Cytotoxicity at 50 μg/mL Pseudomonas” value in the data set on P. aeruginosa was “** (reduced P. aeruginosa cytotoxicity below 75% of untreated, wild type levels at 50 mg/mL)”.
Regarding `O=C(/C=C/c1ccc(F)cc1)Nc1ccc(-c2nc3cc(F)c([N+](=O)[O-])cc3n2O)cc1` [FA, N-[4-(5-Fluoro-1-hydroxy-6-nitro-1H-benzoimidazol-2-yl)-phenyl]-3-(4-fluoro-cinnamyl)-amide], the EC50 is over 25 µM on LcrF (VirF) (setting [1]) and 10 to 25 µM on ExsA. In the data set on P. aeruginosa, the “Cytotoxicity at 50 μg/mL Pseudomonas” value was “** (reduced P. aeruginosa cytotoxicity below 75% of untreated, wild type levels at 50 mg/mL)”.
For the molecule `O=C(/C=C/c1ccc(F)cc1)Nc1ccc(-c2nc3ccc(-n4ccnc4)cc3n2O)cc1` [FT], the values for the EC50 at LcrF (VirF) (setting [1]) and at ExsA were over 25 µM and 10 to 25 µM, respectively. Further, the “Cytotoxicity at 50 μg/mL Pseudomonas” value with P. aeruginosa is “* (reduced P. aeruginosa cytotoxicity to 99-75% of untreated, wild type levels at 50 mg/mL)”.
As for `CC(=O)c1ccc(/C=C/C(=O)Nc2ccc(-c3nc4cc(OCCN5CCOCC5)c([N+](=O)[O-])cc4n3O)cc2)cc1` [FV], the EC50 at LcrF (VirF) (setting [2]) and on ExsA was over 25 µM in each case. Moreover, the “Cytotoxicity at 50 μg/mL Pseudomonas” value in the data set on P. aeruginosa is listed as “** (reduced P. aeruginosa cytotoxicity below 75% of untreated, wild type levels at 50 mg/mL)”.
Take `CC(=O)c1ccc(/C=C/C(=O)Nc2ccc(-c3nc4ccc(C#N)cc4n3O)cc2)cc1` [FW]: the EC50 on LcrF (VirF) (setting [1]) and on ExsA was 10 to 25 µM in each case. Also, in the data set on P. aeruginosa, the “Cytotoxicity at 50 μg/mL Pseudomonas” value is given as “** (reduced P. aeruginosa cytotoxicity below 75% of untreated, wild type levels at 50 mg/mL)”.
For `O=C(/C=C/c1ccc(F)cc1)Nc1ccc(-c2nc3ccc(-n4cccn4)cc3n2O)cc1` [FX, (E)-3-(4-Fluoro-phenyl)-N-[4-(1-hydroxy-6-pyrazol-1-yl-1H-benzoimidazol-2-yl)-phenyl]-acrylamide], the EC50 on LcrF (VirF) (setting [1]) and at ExsA was over 25 µM in each case. Besides, the “Cytotoxicity at 50 μg/mL Pseudomonas” value with P. aeruginosa is recorded as “* (reduced P. aeruginosa cytotoxicity to 99-75% of untreated, wild type levels at 50 mg/mL)”.
For `CC(=O)c1ccc(C(=O)Nc2ccc(-c3nc4ccc(-n5cccn5)cc4n3O)cc2)cc1` [FY, 4-Acetyl-N-[4-(1-hdroxyy-6-pyrazol-1-yl-1H-benzoimidazol-2-yl)-phenyl]-benzamide], the EC50 on LcrF (VirF) (setting [2]) and on ExsA was over 25 µM in each case. In addition, the “Cytotoxicity at 50 μg/mL Pseudomonas” value in the data set with P. aeruginosa is on record as “* (reduced P. aeruginosa cytotoxicity to 99-75% of untreated, wild type levels at 50 mg/mL)”.
In the case of `N#Cc1ccc2nc(-c3ccc(NC(=O)c4ccc(-n5ccnc5)cc4)cc3)n(O)c2c1` [GA], the EC50 on LcrF (VirF) (setting [1]) and at ExsA was 10 to 25 µM each time. Moreover, the “Cytotoxicity at 50 μg/mL Pseudomonas” value in the data set on P. aeruginosa is “** (reduced P. aeruginosa cytotoxicity below 75% of untreated, wild type levels at 50 mg/mL)”.
For the molecule `CC(=O)c1ccc(/C=C/C(=O)Nc2ccc(-c3nc4ccc(Br)cc4n3O)cc2)cc1` [GD], the EC50 at ExsA is under 10 µM. The “Cytotoxicity at 50 μg/mL Pseudomonas” value in the data set on P. aeruginosa is on record as “* (reduced P. aeruginosa cytotoxicity to 99-75% of untreated, wild type levels at 50 mg/mL)”.
As to `CC(=O)c1ccc(/C=C/C(=O)Nc2ccc(-c3nc4ccc(C(F)(F)F)cc4n3O)cc2)cc1` [GE], on ExsA, the EC50 lay within 10 to 25 µM. The “Cytotoxicity at 50 μg/mL Pseudomonas” value in the data set on P. aeruginosa was “* (reduced P. aeruginosa cytotoxicity to 99-75% of untreated, wild type levels at 50 mg/mL)”.
For `CC(=O)c1ccc(/C=C/C(=O)Nc2ccc(-c3nc4ccc(S(N)(=O)=O)cc4n3O)cc2)cc1` [GF], the EC50 on ExsA was in the range of 10 to 25 µM. Further, the “Cytotoxicity at 50 μg/mL Pseudomonas” value in the data set with P. aeruginosa was “* (reduced P. aeruginosa cytotoxicity to 99-75% of untreated, wild type levels at 50 mg/mL)”.
As for `CC(=O)c1ccc(/C=C/C(=O)Nc2ccc(-c3nc4ccccc4n3O)cc2)cc1` [GH], the EC50 on ExsA was in the range of 10 to 25 µM. The “Cytotoxicity at 50 μg/mL Pseudomonas” value with P. aeruginosa is on record as “* (reduced P. aeruginosa cytotoxicity to 99-75% of untreated, wild type levels at 50 mg/mL)”.
Regarding `CC(=O)c1ccc(/C=C/C(=O)Nc2ccc(-c3nc4ccc(C(C)=O)cc4n3O)cc2)cc1` [GI], the EC50 at ExsA was over 25 µM. For the same molecule, the “Cytotoxicity at 50 μg/mL Pseudomonas” value in the data set with P. aeruginosa is “* (reduced P. aeruginosa cytotoxicity to 99-75% of untreated, wild type levels at 50 mg/mL)”.
As to `CC(=O)c1ccc(/C=C/C(=O)Nc2ccc(-c3nc4ccc(S(C)(=O)=O)cc4n3O)cc2)cc1` [GK], the EC50 at ExsA was over 25 µM. Further, in the data set with P. aeruginosa, the “Cytotoxicity at 50 μg/mL Pseudomonas” value is reported as “* (reduced P. aeruginosa cytotoxicity to 99-75% of untreated, wild type levels at 50 mg/mL)”.
With `CC(=O)c1ccc(/C=C/C(=O)Nc2ccc(-c3nc4ccc(C(=O)O)cc4n3O)cc2)cc1` [GL], the EC50 on ExsA was over 25 µM. Also, the “Cytotoxicity at 50 μg/mL Pseudomonas” value with P. aeruginosa is reported as “** (reduced P. aeruginosa cytotoxicity below 75% of untreated, wild type levels at 50 mg/mL)”.
For the molecule `CC(=O)c1ccc(/C=C/C(=O)Nc2ccc(-c3nc4ccc([N+](=O)[O-])cc4n3O)cc2)cn1` [GN], the EC50 on ExsA is under 10 µM. The “Cytotoxicity at 50 μg/mL Pseudomonas” value in the data set with P. aeruginosa is “** (reduced P. aeruginosa cytotoxicity below 75% of untreated, wild type levels at 50 mg/mL)”.
Regarding `CC(=O)c1ccc(/C=C/C(=O)N(CC(=O)O)c2ccc(-c3nc4ccc(C#N)cc4n3O)cc2)cc1` [GO, {[(E)-3-(4-Acetyl-phenyl)-acryloyl]-[4-(6-cyano-1-hydroxy-1H-benzoimidazol-2-yl)-phenyl]-amino}-acetic acid], on ExsA, the EC50 is over 25 µM. The “Cytotoxicity at 50 μg/mL Pseudomonas” value with P. aeruginosa is listed as “* (reduced P. aeruginosa cytotoxicity to 99-75% of untreated, wild type levels at 50 mg/mL)”.
As for `CC(=O)c1ccc(/C=C/C(=O)N(CC(N)=O)c2ccc(-c3nc4ccc([N+](=O)[O-])cc4n3O)cc2)cc1` [GP, (E)-3-(4-Acetyl-phenyl)-N-carbamoylmethyl-N-[4-(1-hydroxy-6-nitro-1H-benzoimidazol-2-yl)-phenyl]-acrylamide], the EC50 on ExsA is over 25 µM. Moreover, the “Cytotoxicity at 50 μg/mL Pseudomonas” value in the data set with P. aeruginosa is listed as “* (reduced P. aeruginosa cytotoxicity to 99-75% of untreated, wild type levels at 50 mg/mL)”.
With `CC(=O)c1ccc(/C=C/C(=O)N(CC(N)=O)c2ccc(-c3nc4ccc(C#N)cc4n3O)cc2)cc1` [GQ], the EC50 at ExsA is over 25 µM. For the same molecule, the “Cytotoxicity at 50 μg/mL Pseudomonas” value in the data set with P. aeruginosa is “* (reduced P. aeruginosa cytotoxicity to 99-75% of untreated, wild type levels at 50 mg/mL)”.
Take `CC(=O)c1ccc(/C=C/C(=O)Nc2ccc(-c3nc4ccc(F)cc4n3O)cc2)cc1` [GR]: the EC50 at ExsA fell in the range of 10 to 25 µM. For the same molecule, the “Cytotoxicity at 50 μg/mL Pseudomonas” value in the data set on P. aeruginosa was “* (reduced P. aeruginosa cytotoxicity to 99-75% of untreated, wild type levels at 50 mg/mL)”.
As for `O=C(/C=C/c1ccc(-n2ccnc2)nc1)Nc1ccc(-c2nc3ccc([N+](=O)[O-])cc3n2O)cc1` [GS], the EC50 at ExsA fell in the range of 10 to 25 µM. Besides, the “Cytotoxicity at 50 μg/mL Pseudomonas” value with P. aeruginosa is listed as “** (reduced P. aeruginosa cytotoxicity below 75% of untreated, wild type levels at 50 mg/mL)”.
For the molecule `O=C(/C=C/c1ccc(C(F)(F)F)nc1)Nc1ccc(-c2nc3ccc([N+](=O)[O-])cc3n2O)cc1` [GT], the EC50 at ExsA is under 10 µM. In addition, in the data set with P. aeruginosa, the “Cytotoxicity at 50 μg/mL Pseudomonas” value is on record as “** (reduced P. aeruginosa cytotoxicity below 75% of untreated, wild type levels at 50 mg/mL)”.
With `CS(=O)(=O)c1ccc(/C=C/C(=O)Nc2ccc(-c3nc4ccc([N+](=O)[O-])cc4n3O)cc2)cc1` [GU], on ExsA, the EC50 was under 10 µM. Besides, in the data set with P. aeruginosa, the “Cytotoxicity at 50 μg/mL Pseudomonas” value is on record as “** (reduced P. aeruginosa cytotoxicity below 75% of untreated, wild type levels at 50 mg/mL)”.
For `N#Cc1ccc2nc(-c3ccc(NC(=O)/C=C/c4ccc(-n5ccnc5)nc4)cc3)n(O)c2c1` [GV], the EC50 on ExsA was over 25 µM. The “Cytotoxicity at 50 μg/mL Pseudomonas” value in the data set with P. aeruginosa is “** (reduced P. aeruginosa cytotoxicity below 75% of untreated, wild type levels at 50 mg/mL)”.
